From US20070270418A1, “Inhibitors of P38 and Methods of Using the Same” (priority 2003, published 2007)

Assays:
ZAP-70 = biological target: T1, ZAP-70 (Homo sapiens, UniProt P43403); assay: Broad selectivity panel, 32P incorporation; assay type: biochemical; details: 40 μM ATP, read-out: Percent inhibition ZAP-70; for inhibition at 0.1 µM: 0.1 μM compound; for inhibition at 1 µM: 1 μM compound
T1 construct: purchased Upstate (Charlottesville, Va.)
T1 sequence (P43403 1-619): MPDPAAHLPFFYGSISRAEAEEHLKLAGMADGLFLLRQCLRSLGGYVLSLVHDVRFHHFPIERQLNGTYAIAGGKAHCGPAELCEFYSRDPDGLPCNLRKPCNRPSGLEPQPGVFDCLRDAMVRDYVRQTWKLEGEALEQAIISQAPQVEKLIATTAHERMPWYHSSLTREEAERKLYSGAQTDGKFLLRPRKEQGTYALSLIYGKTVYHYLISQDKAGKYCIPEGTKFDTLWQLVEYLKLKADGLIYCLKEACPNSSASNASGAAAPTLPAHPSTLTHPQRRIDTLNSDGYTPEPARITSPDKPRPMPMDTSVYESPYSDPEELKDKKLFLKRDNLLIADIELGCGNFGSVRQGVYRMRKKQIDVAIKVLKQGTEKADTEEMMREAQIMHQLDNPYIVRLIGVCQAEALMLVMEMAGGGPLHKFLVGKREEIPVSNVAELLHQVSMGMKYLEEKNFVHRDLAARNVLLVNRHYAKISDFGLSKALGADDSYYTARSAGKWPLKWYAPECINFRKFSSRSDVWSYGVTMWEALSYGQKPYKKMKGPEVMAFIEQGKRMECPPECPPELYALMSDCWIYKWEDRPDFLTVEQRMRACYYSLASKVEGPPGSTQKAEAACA
In short: (§1)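 24-kinase panel; cpd 0.1 / 1 μM; ATP 40 μM; 32P into substrate ± cpd; output = % decrease vs buffer ctrl.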

CK2 = biological target: T2, CK2 (Homo sapiens, UniProt P68400); assay: Broad selectivity panel, 32P incorporation; assay type: biochemical; details: 40 μM ATP, read-out: Percent inhibition CK2; for inhibition at 0.1 µM: 0.1 μM compound; for inhibition at 1 µM: 1 μM compound
T2 construct: purchased Upstate (Charlottesville, Va.)
T2 sequence (P68400 whole entry): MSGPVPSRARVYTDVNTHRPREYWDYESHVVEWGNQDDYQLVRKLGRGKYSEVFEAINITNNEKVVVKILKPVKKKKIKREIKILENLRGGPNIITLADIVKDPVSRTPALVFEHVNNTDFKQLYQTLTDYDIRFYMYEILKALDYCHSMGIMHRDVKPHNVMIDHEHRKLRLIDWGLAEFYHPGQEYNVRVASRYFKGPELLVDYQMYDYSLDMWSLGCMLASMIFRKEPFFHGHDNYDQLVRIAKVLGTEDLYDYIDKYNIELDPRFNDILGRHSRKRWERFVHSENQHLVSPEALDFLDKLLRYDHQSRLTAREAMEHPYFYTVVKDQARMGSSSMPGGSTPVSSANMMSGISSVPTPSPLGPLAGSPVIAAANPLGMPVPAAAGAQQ
T2 sequence (P67870 whole entry partner): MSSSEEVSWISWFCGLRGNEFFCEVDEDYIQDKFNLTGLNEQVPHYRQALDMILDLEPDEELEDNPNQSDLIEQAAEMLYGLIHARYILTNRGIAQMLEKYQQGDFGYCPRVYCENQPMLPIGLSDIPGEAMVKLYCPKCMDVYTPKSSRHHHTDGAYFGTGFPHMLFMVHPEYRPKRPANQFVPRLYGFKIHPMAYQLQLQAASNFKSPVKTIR
In short: as §1

PDGFR α = biological target: T3, PDGFR α (Homo sapiens, UniProt P16234); assay: Broad selectivity panel, 32P incorporation; assay type: biochemical; details: 40 μM ATP, read-out: Percent inhibition PDGFR α; for inhibition at 0.1 µM: 0.1 μM compound; for inhibition at 1 µM: 1 μM compound
T3 construct: purchased Upstate (Charlottesville, Va.)
T3 sequence (P16234 24-1089, species assumed): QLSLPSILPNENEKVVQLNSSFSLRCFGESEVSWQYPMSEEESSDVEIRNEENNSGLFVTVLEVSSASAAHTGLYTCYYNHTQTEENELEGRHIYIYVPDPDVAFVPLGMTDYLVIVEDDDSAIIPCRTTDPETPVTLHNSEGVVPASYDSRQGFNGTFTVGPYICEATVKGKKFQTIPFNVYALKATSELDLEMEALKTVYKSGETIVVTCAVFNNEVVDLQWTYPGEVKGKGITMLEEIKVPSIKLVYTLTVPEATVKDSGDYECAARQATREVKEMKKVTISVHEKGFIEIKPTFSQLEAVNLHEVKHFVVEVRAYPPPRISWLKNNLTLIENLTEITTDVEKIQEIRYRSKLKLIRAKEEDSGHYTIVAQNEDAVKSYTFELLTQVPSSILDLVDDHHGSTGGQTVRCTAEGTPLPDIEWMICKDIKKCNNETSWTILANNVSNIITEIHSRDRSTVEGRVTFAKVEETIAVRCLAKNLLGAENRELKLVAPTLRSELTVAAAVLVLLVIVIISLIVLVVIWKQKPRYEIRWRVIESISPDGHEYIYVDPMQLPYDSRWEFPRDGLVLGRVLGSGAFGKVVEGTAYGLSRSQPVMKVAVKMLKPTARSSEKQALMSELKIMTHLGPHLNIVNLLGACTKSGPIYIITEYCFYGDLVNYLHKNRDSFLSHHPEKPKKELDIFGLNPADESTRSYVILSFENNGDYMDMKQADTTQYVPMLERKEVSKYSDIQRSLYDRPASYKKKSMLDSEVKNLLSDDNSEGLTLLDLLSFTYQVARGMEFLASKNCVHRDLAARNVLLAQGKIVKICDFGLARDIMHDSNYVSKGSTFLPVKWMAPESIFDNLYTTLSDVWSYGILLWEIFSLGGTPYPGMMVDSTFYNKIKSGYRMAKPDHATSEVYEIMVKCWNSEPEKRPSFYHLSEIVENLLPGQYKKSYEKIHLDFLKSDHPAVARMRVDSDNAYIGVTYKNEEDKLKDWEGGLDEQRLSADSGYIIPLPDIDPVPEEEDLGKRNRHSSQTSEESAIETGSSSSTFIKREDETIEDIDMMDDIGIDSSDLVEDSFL
In short: as §1

[1] = test system: TNFα release from THP-1 cells; assay: TNFα release from LPS-stimulated THP-1 cells; assay type: cell-based; details: Homo sapiens, THP-1, 18 h, LPS 10 μg/ml, 18 hours; read-out: TNFα (THP-1) IC50
In short: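 THP-1 cells (10^6 cells/ml on resuspension) preincubated with compound 30 min at 37°C, 5% CO2, final DMSO ≤0.5%, then stimulated with 10 μg/ml LPS for 18 h (TNFα). Supernatants collected for TNFα analysis.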

Compound	inhibition at 0.1 µM (ZAP-70) [%]	inhibition at 1 µM (ZAP-70) [%]	inhibition at 0.1 µM (CK2) [%]	inhibition at 1 µM (CK2) [%]	inhibition at 0.1 µM (PDGFR α) [%]	inhibition at 1 µM (PDGFR α) [%]	IC50 [1] [nM]
CC(=O)N1CCC(Nc2nccc(-c3c(-c4ccc(F)cc4)nc4occn34)n2)CC1 [CCLXXVIII]	-53	18	5	10	23	17	9.26
CN1[C@@H]2CC[C@H]1C[C@@H](Nc1nccc(-c3c(-c4ccc(F)cc4)nc4occn34)n1)C2 [CCLXXXI]	12	30	6	16	11	21	3.64
Fc1ccc(-c2nc3occn3c2-c2ccnc(N[C@@H]3CN4CCC3CC4)n2)cc1 [LXXI]	-17	4	3	12	10	9	19.1
Fc1ccc(-c2nc3occn3c2-c2ccnc(NC3CN4CCC3CC4)n2)cc1 (centres unmarked) [LXXXIV]	–	–	–	–	–	–	9.28
Fc1ccc(-c2nc3occn3c2-c2ccnc(N[C@H]3CN4CCC3CC4)n2)cc1 [LXXXVII]	-51	-14	4	4	-6	-11	1.87

Second part, led by results:

inhibition at 0.1 µM (ZAP-70) [%]	inhibition at 1 µM (ZAP-70) [%]	inhibition at 0.1 µM (CK2) [%]	inhibition at 1 µM (CK2) [%]	inhibition at 0.1 µM (PDGFR α) [%]	inhibition at 1 µM (PDGFR α) [%]	Compound	IC50 [1] [nM]
13	-1	8	4	0	-9	CS(=O)(=O)N1CCC(Nc2nccc(-c3c(-c4ccc(F)cc4)nc4occn34)n2)CC1 [CCLXXIX]	5.1
-2	9	10	32	1	8	Fc1ccc(-c2nc3occn3c2-c2ccnc(NC3CCNCC3)n2)cc1 [CCLXXX]	7.89
13	-9	9	3	26	10	CN(C)CC(C)(C)CNc1nccc(-c2c(-c3ccc(F)cc3)nc3occn23)n1 [CXIX]	33.1
